According to US8299267B2, “(3-hydroxy-4-amino-butan-2-yl) -3- (2-thiazol-2-yl-pyrrolidine-1-carbonyl) benzamide derivatives and related compounds as beta-secretase inhibitors for treating” (CoMentis, Inc., priority 2007, dated 2012):

Columns and labels:
memapsin 2 = memapsin 2 (Homo sapiens, UniProt P56817); assay: Inhibition of memapsin 2 beta-secretase activity toward fluorogenic substrate FS-2; type: biochemical; settings: memapsin 2, pH 4, 37° C., 20 minutes pre-incubation, substrate FS-2; read-out: M2Ki
Chain of memapsin 2 (P56817 46-501): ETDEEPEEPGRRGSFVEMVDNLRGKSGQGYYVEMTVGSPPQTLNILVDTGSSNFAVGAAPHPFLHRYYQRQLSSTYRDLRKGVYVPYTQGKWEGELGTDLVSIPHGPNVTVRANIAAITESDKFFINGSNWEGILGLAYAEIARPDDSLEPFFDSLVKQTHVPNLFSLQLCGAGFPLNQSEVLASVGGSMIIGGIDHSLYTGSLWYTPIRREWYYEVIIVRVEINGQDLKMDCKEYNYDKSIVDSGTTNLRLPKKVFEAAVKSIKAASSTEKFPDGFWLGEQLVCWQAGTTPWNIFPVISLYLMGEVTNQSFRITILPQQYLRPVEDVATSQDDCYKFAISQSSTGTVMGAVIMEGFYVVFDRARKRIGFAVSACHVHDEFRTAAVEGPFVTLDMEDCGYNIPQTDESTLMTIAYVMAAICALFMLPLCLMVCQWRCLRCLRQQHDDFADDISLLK
Protocol: Potency of compounds were determined by measurement of their inhibition of memapsin 2 activity toward a fluorescent substrate. Kinetic inhibition experiments were performed using the procedure as described in Ermolieff, et al. (Biochemistry 39:12450-12456 (2000), the teachings of which are incorporated hereby in their entirety). Briefly, assays were performed at pH 4, 37° C., by pre-incubation of memapsin 2 enzyme with compound for 20 minutes. Activity measurements were initiated by addition of a fluorogenic substrate FS-2 (Bachem Americas, Torrance, Calif.) MCA-SEVNLDAEFK-DNP (SEQ ID NO.: 2). The substrate was derived from 10 amino acids of the human amyloid precursor protein (APP), with the Swedish variant amino acids at the beta-secretase cleavage site. The terminal amino acid was modified from arginine to lysine to facilitate derivatization with a functional group for detection by autofluorescence. The amino acid sequence of the “core” peptide of the substrate is SEVNLDAEFK (SEQ ID NO.: 3). The amino terminus was derivatized with (7-methoxycoumarin-4-yl)acetyl (MCA), and the epsilon amine of the lysine side chain of the terminal residue (K in sequence SEVNLDAEFK (SEQ ID NO.: 4)) was derivatized with 2,4-dinitrophenyl (DNP).

[1] = tested on: Aβ production in Chinese hamster ovary cells that over-express human APP695 with the London and Swedish mutations; assay: Cellular Aβ IC50 determination (Aβ40 sandwich ELISA); type: cell-based; settings: Cricetulus griseus; Aβ40 in CHO cells over-expressing human APP695, 24 h incubation
Protocol: The potency of compounds against memapsin 2 activity was determined in a cellular assay of Aβ production. […] Chinese hamster ovary cells that over-express human APP695 with the London and Swedish mutations were seeded in multi-well plates at 10% confluency. Compounds are dissolved in DMSO to concentrations near 1 mM, and diluted into culture media to a final concentration near 4 μM (final 0.4% DMSO). Compounds were diluted serially and applied to cells in multi-well plates 48 h after seeding. Incubation was continued in 5% CO2 at 37° C. for 24 h. Aliquots were removed and assayed for Aβ40 content using a sandwich ELISA (BioSource International). Amount of Aβ40 over the range of concentration of compounds, relative to control incubations, were fit to a 4-parameter IC50 model.

SMILES	Ki (memapsin 2)	IC50 [1]
Cc1coc([C@H]2CCCN2C(=O)c2cc(CF)cc(C(=O)N[C@@H](Cc3ccccc3)[C@H](O)CNCc3cccc(C(C)(C)C)c3)c2)n1 [Compound 95, N-((2S,3R)-4-(3-tert-butylbenzylamino)-3-hydroxy-1-phenylbutan-2-yl)-3-(fluoromethyl)-5-((R)-2-(4-methyloxazol-2-yl)pyrrolidine-1-carbonyl)benzamide]	< 100 nM	< 300 nM
COc1cc(C(=O)N[C@@H](Cc2ccccc2)[C@H](O)CNCc2cccc(C(F)(F)F)c2)cc(C(=O)N2CCC[C@@H]2c2nc(C)co2)c1 [Compound 93, N-((2S,3R)-3-hydroxy-1-phenyl-4-(3-(trifluoromethyl)benzylamino)butan-2-yl)-3-methoxy-5-((R)-2-(4-methyloxazol-2-yl)pyrrolidine-1-carbonyl)benzamide]	< 100 nM	< 300 nM
Cc1csc([C@H]2CCCN2C(=O)c2cc(C(=O)N[C@@H](Cc3ccccc3)[C@H](O)CNCc3cccc(C(F)(F)F)c3)cc(-c3ccco3)n2)n1 [Compound 75, 2-(furan-2-yl)-N-((2S,3R)-3-hydroxy-1-phenyl-4-(3-(trifluoromethyl)benzylamino)butan-2-yl)-6-((R)-2-(4-methylthiazol-2-yl)pyrrolidine-1-carbonyl)isonicotinamide]	< 100 nM	< 300 nM
C=C(C)c1cccc(CNC[C@@H](O)[C@H](Cc2ccccc2)NC(=O)c2cccc(C(=O)N3CCC[C@@H]3c3nc(C)co3)c2)c1 [Compound 105, N-((2S,3R)-3-hydroxy-1-phenyl-4-(3-(prop-1-en-2-yl)benzylamino)butan-2-yl)-3-((R)-2-(4-methyloxazol-2-yl)pyrrolidine-1-carbonyl)benzamide]	< 100 nM	< 300 nM
Cc1cc(C(=O)N[C@@H](Cc2ccccc2)[C@H](O)CNCc2cccc(C(F)(F)F)c2)cc(C(=O)N2CCC[C@@H]2c2nc(C)co2)c1 [Compound 55, N-((2S,3R)-3-hydroxy-1-phenyl-4-(3-(trifluoromethyl)benzylamino)butan-2-yl)-3-methyl-5-((R)-2-(4-methyloxazol-2-yl)pyrrolidine-1-carbonyl)benzamide]	< 100 nM	< 300 nM
COc1cc(C(=O)N[C@@H](Cc2ccccc2)[C@H](O)CN[C@@H](C)c2cccc(OC)c2)cc(C(=O)N2CCC[C@@H]2c2nc(C)cs2)c1 [Compound 20, N-((2S,3R)-3-hydroxy-4-((S)-1-(3-methoxyphenyl)ethylamino)-1-phenylbutan-2-yl)-3-methoxy-5-((R)-2-(4-methylthiazol-2-yl)pyrrolidine-1-carbonyl)benzamide]	< 100 nM	< 300 nM
Cc1csc([C@H]2CCCN2C(=O)c2cc(C(=O)N[C@@H](Cc3ccccc3)[C@H](O)CNCc3cccc(C(F)(F)F)c3)cc(-n3cccc3)c2)n1 [Compound 80, N-((2S,3R)-3-hydroxy-1-phenyl-4-(3-(trifluoromethyl)benzylamino)butan-2-yl)-3-((R)-2-(4-methylthiazol-2-yl)pyrrolidine-1-carbonyl)-5-(1H-pyrrol-1-yl)benzamide]	< 100 nM	< 300 nM
Cc1csc([C@H]2CCCN2C(=O)c2cc(C(=O)N[C@@H](Cc3ccccc3)[C@H](O)CNCc3cccc(C(F)(F)F)c3)cc(N(C)C)n2)n1 [Compound 98, 2-(dimethylamino)-N-((2S,3R)-3-hydroxy-1-phenyl-4-(3-(trifluoromethyl)benzylamino)butan-2-yl)-6-((R)-2-(4-methylthiazol-2-yl)pyrrolidine-1-carbonyl)isonicotinamide]	< 100 nM	–
Cc1coc([C@H]2CCCN2C(=O)c2cncc(C(=O)N[C@@H](Cc3ccccc3)[C@H](O)CNCc3cccc(C(F)(F)F)c3)c2)n1 [Compound 72, N-((2S,3R)-3-hydroxy-1-phenyl-4-(3-(trifluoromethyl)benzylamino)butan-2-yl)-5-((R)-2-(4-methyloxazol-2-yl)pyrrolidine-1-carbonyl)nicotinamide]	< 100 nM	–
Cc1coc([C@H]2CCCN2C(=O)c2cccc(C(=O)N[C@@H](Cc3ccccc3)[C@H](O)CNCc3cncc(C(C)(C)C)c3)c2)n1 [Compound 111, N-((2S,3R)-4-((5-tert-butylpyridin-3-yl)methylamino)-3-hydroxy-1-phenylbutan-2-yl)-3-((R)-2-(4-methyloxazol-2-yl)pyrrolidine-1-carbonyl)benzamide]	< 100 nM	–

Next, values leading:

Ki (memapsin 2)	IC50 [1]	SMILES
< 100 nM	< 300 nM	Cc1csc([C@H]2CCCN2C(=O)c2cncc(C(=O)N[C@@H](Cc3ccccc3)[C@H](O)CNCc3cc(Cl)cc(Cl)c3)c2)n1 [Compound 60, N-((2S,3R)-4-(3,5-dichlorobenzylamino)-3-hydroxy-1-phenylbutan-2-yl)-5-((R)-2-(4-methylthiazol-2-yl)pyrrolidine-1-carbonyl)nicotinamide]
< 100 nM	< 300 nM	Cc1csc([C@H]2CCCN2C(=O)c2cc(C(=O)N[C@@H](Cc3ccccc3)[C@H](O)CNCc3cccc(C(F)(F)F)c3)cc(N(C)C)c2)n1 [Compound 30, 3-(dimethylamino)-N-((2S,3R)-3-hydroxy-1-phenyl-4-(3-(trifluoromethyl)benzylamino)butan-2-yl)-5-((R)-2-(4-methylthiazol-2-yl)pyrrolidine-1-carbonyl)benzamide]
< 100 nM	< 300 nM	Cc1csc([C@H]2CCCN2C(=O)c2cccc(C(=O)N[C@@H](Cc3ccccc3)[C@H](O)CNCc3cccc(Cl)c3)c2)n1 [Compound 17, N-((2S,3R)-4-(3-chlorobenzylamino)-3-hydroxy-1-phenylbutan-2-yl)-3-((R)-2-(4-methylthiazol-2-yl)pyrrolidine-1-carbonyl)benzamide]
< 100 nM	< 300 nM	Cc1cc(C(=O)N[C@@H](Cc2ccccc2)[C@H](O)CNCc2cccc(C(F)(F)F)c2)cc(C(=O)N2CCC[C@@H]2c2nc(C)cs2)n1 [Compound 79, N-((2S,3R)-3-hydroxy-1-phenyl-4-(3-(trifluoromethyl)benzylamino)butan-2-yl)-2-methyl-6-((R)-2-(4-methylthiazol-2-yl)pyrrolidine-1-carbonyl)isonicotinamide]
< 100 nM	< 300 nM	Cc1csc([C@H]2CCCN2C(=O)c2cc(C(=O)N[C@@H](Cc3ccccc3)[C@H](O)CNCc3cncc(C(C)C)c3)cc(-n3cccc3)c2)n1 [Compound 74, N-((2S,3R)-3-hydroxy-4-((5-isopropylpyridin-3-yl)methylamino)-1-phenylbutan-2-yl)-3-((R)-2-(4-methylthiazol-2-yl)pyrrolidine-1-carbonyl)-5-(1H-pyrrol-1-yl)benzamide]
< 100 nM	< 300 nM	COc1cc(C(=O)N[C@@H](Cc2ccccc2)[C@H](O)CNCc2cccc(C(C)(C)C)c2)cc(C(=O)N2CCC[C@@H]2c2nc(C)cs2)c1 [Compound 16, N-((2S,3R)-4-(3-tert-butylbenzylamino)-3-hydroxy-1-phenylbutan-2-yl)-3-methoxy-5-((R)-2-(4-methylthiazol-2-yl)pyrrolidine-1-carbonyl)benzamide]
> 201 nM	301 to 500 nM	Cc1cc(CNC[C@@H](O)[C@H](Cc2ccccc2)NC(=O)c2cccc(C(=O)N3CCC[C@@H]3c3nc(C)cs3)c2)on1 [Compound 65, N-((2S,3R)-3-hydroxy-4-((3-methylisoxazol-5-yl)methylamino)-1-phenylbutan-2-yl)-3-((R)-2-(4-methylthiazol-2-yl)pyrrolidine-1-carbonyl)benzamide]
< 100 nM	–	Cc1cc(C(=O)N[C@@H](Cc2ccccc2)[C@H](O)CNCc2cncc(C(C)(F)F)c2)cc(C(=O)N2CCC[C@@H]2c2nc(C)co2)c1 [Compound 113, N-((2S,3R)-4-((5-(1,1-difluoroethyl)pyridin-3-yl)methylamino)-3-hydroxy-1-phenylbutan-2-yl)-3-methyl-5-((R)-2-(4-methyloxazol-2-yl)pyrrolidine-1-carbonyl)benzamide]
< 100 nM	–	Cc1csc([C@H]2CCCN2C(=O)c2cc(C(=O)N[C@@H](Cc3ccccc3)[C@H](O)CNCc3cncc(C(C)C)c3)cc(C(F)F)c2)n1 [Compound 62, 3-(difluoromethyl)-N-((2S,3R)-3-hydroxy-4-((5-isopropylpyridin-3-yl)methylamino)-1-phenylbutan-2-yl)-5-((R)-2-(4-methylthiazol-2-yl)pyrrolidine-1-carbonyl)benzamide]
< 100 nM	–	COc1cc(C(=O)N[C@@H](Cc2ccccc2)[C@H](O)CNCc2cc(Cl)cc(Cl)c2)cc(C(=O)N2CCC[C@@H]2c2nc(C)cs2)c1 [Compound 54, N-((2S,3R)-4-(3,5-dichlorobenzylamino)-3-hydroxy-1-phenylbutan-2-yl)-3-methoxy-5-((R)-2-(4-methylthiazol-2-yl)pyrrolidine-1-carbonyl)benzamide]
